Test results taken from patent US20200071310A1, “N-ARYL PYRAZOLES AS NRF2 REGULATORS” (GLAXOSMITHKLINE INTELLECTUAL PROPERTY DEVELOPMENT LIMITED, priority 2016, published 2020).
pEC50: −log10 of the molar value.

Target: T1, full length Keap1 protein / full length NRF2 protein (Homo sapiens, UniProt Q14145)
T1 construct: full length NRF2 protein and full length Keap1 protein (Keap1 exists a dimer) are used; His
Assay: NRF2-Keap1 TR-FRET Low Protein Assay
Type: binding
From the text: In the NRF2-Keap1 TR-FRET (time-resolved fluorescence resonance energy transfer) low protein assay, full length NRF2 protein and full length Keap1 protein (Keap1 exists a dimer) are used. The assay detects a compound's ability to displace the binding of Keap1 FlagHis with biotinylated Avi-NRF2 protein. Biotin-NRF2 binds to streptavidin-europium (a component of the detection mix) and Keap1 FlagHis is recognized by anti-Flag APC (allophycocyanin) antibody (also a component of the detection mix). If binding occurs between the two proteins, there will be an energy transfer from the Eu+3 (donor) at 615 nm to the APC (acceptor) at 665 nm. A potential NRF2 inhibitor will cause a reduction in the TR-FRET signal by interfering with the binding of Keap1 to NRF2.
Ten nanoliters of 100× compound dose response curves (serial 3-fold dilutions) in DMSO were stamped using an Echo liquid handling system (Labcyte) into 384-well, low volume, black assay plates (Greiner, #784076), with DMSO in columns 6 and 18. An additional 90 nl DMSO was added to each well, to bring the total volume to 100 nl per well. The top concentration of compound was located in columns 1 and 13, with the serial dilutions going across the row. All reagents were diluted in assay buffer (50 mM Tris, pH 8.0, 5 mM MgCl2, 100 mM NaCl, 0.005% BSA, 1 mM DTT, and 2 mM CHAPS. The BSA, DTT, and CHAPS were added to the assay buffer on the day of assay. Using a Multidrop Combi (Thermo Electron Corporation) equipped with a metal tip dispenser, 5 ul of 1.25 nM Keap1 FlagHis protein was added to all wells of the compound plate, with the exception of the wells in column 18. Wells in column 18 received 5 ul of assay buffer instead. Plates were centrifuged at 500 rpm for 1 minute, covered with a plate lid, and incubated at 37° C. for 2.25 hours. Plates were then removed from the incubator and allowed to cool to RT for 15 minutes. Five microliters of 2.5 nM biotin-NRF2 protein was then added to all wells of the plates and the plates were spun at 500 rpm for 1 minute, followed by incubating at 4° C. for 1.25 hours. The plates were then allowed to warm to RT for 15 minutes, followed by the addition of 10 ul of detection mix (1 nM Streptavidin Eu+W1024 and 5 ug/ml mouse anti-DYKDDDDK IgG conjugated to SureLight APC antibody; both from Columbia Biosciences) to all wells. Plates were spun at 500 rpm for 1 minute, incubated for 1 hour at RT, and read on an Envision plate reader using a 320 nm excitation filter and 615 nm and 665 nm emission filters. Compound response (% inhibition) and potency (pIC50) were calculated based on the ratio of the two emissions (665 nm/615 nm) and then the transformed data was normalized against controls in the assay (control 1=1% DMSO in the presence of NRF2 and Keap1 protein and control 2=1% DMSO in the presence of only the NRF2 protein). Data analysis was handled using the software package Abase XE (Surrey, United Kingdom). The % inhibition values were calculated from the ratio (transformed) data by the equation:
100−(100*(compound response−average control 2)/(average control 1−average control2)).
For calculation of pIC50s, Abase XE used a four parameter equation.
IC50s<10 nM (+++++), IC50s 10-100 nM (++++), IC50s 100 nM-1 uM (+++), IC50s 1-10 uM (++). and IC50s 10 uM-100 uM (+), IC50s>100 uM (−), or were not determined (ND).

T1 sequence (Q14145 whole entry): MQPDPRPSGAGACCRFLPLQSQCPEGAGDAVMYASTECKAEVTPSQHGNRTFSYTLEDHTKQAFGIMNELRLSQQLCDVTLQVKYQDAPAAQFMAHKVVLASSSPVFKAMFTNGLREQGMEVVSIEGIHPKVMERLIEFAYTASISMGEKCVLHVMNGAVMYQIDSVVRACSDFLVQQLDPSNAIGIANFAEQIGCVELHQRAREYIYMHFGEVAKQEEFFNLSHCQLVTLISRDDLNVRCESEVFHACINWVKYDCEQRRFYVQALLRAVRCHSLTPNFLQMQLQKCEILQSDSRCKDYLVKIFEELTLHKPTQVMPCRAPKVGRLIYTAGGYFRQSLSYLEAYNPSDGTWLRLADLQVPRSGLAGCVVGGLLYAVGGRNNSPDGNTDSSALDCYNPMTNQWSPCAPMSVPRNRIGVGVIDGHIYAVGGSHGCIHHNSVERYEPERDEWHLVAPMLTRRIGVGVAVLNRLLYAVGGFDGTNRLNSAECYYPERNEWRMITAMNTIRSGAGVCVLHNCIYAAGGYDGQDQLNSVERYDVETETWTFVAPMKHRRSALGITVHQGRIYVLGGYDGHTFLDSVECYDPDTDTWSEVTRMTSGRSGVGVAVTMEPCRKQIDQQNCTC

Compound	pEC50
Cn1cc([C@@H]2C[C@H]2c2c(C(=O)O)cnn2-c2cccc(CN3CC(C)(C)Oc4ccc(F)cc4S3(=O)=O)c2)nn1 (racemic) [Example 5]	7.00 to 8.00
Cn1cc([C@@H]2C[C@H]2c2c(C(=O)O)cnn2-c2cccc(CN3Cc4ccccc4CC(C)(C)C3)c2)nn1 (racemic) [Example 7]	6.00 to 7.00
Cn1cc([C@@H]2C[C@H]2c2c(C(=O)O)cnn2-c2cccc(CN3Cc4ccccc4OC(C)(C)C3)c2)nn1 (racemic) [Example 8]	6.00 to 7.00
Cn1cc([C@@H]2C[C@H]2c2c(C(=O)O)cnn2-c2cccc(CN3Cc4ncccc4OC(C)(C)C3)c2)nn1 (racemic) [Example 9]	6.00 to 7.00
Cn1cc([C@@H]2C[C@H]2c2c(C(=O)O)cnn2-c2cccc(CN3Cc4cc(Br)ccc4OC(C)(C)C3)c2)nn1 (racemic) [Example 13]	7.00 to 8.00
CC[C@@H]1CN(Cc2cccc(-n3ncc(C(=O)O)c3[C@@H]3C[C@H]3c3cn(C)nn3)c2)Cc2ccccc2O1 (racemic) [Example 14]	5.00 to 6.00
C[C@H]1Cc2ccc(C(F)(F)F)cc2S(=O)(=O)N(Cc2cccc(-n3ncc(C(=O)O)c3[C@@H]3C[C@H]3c3cn(C)nn3)c2)C1 (racemic) [Example 16, 1-(3-((4-methyl-1,1-dioxido-8-(trifluoromethyl)-4,5-dihydro-benzo[f][1,2]thiazepin-2(3H)-yl)methyl)phenyl)-5-((trans)-2-(1-methyl-1H-1,2,3-triazol-4-yl)cyclopropyl)-1H-pyrazole-4-carboxylic acid]	7.00 to 8.00
C[C@H]1Cc2ccc(Br)cc2S(=O)(=O)N(Cc2cccc(-n3ncc(C(=O)O)c3[C@@H]3C[C@H]3c3cn(C)nn3)c2)C1 (racemic) [Example 17, 1-(3-((8-bromo-4-methyl-1,1-dioxido-4,5-dihydrobenzo[f][1,2]thiazepin-2(3H)-yl)methyl)phenyl)-5-((trans)-2-(1-methyl-1H-1,2,3-triazol-4-yl)cyclopropyl)-1H-pyrazole-4-carboxylic acid]	7.00 to 8.00
C[C@@H]1Cc2cc(C(F)(F)F)ccc2S(=O)(=O)N(Cc2cccc(-n3ncc(C(=O)O)c3[C@@H]3C[C@H]3c3cn(C)nn3)c2)C1 (racemic) [Example 18, 1-(3-((4-methyl-1,1-dioxido-7-(trifluoromethyl)-4,5-dihydro-benzo[f][1,2]thiazepin-2(3H)-yl)methyl)phenyl)-5-((trans)-2-(1-methyl-1H-1,2,3-triazol-4-yl)cyclopropyl)-1H-pyrazole-4-carboxylic acid]	7.00 to 8.00
C[C@H]1Cc2cc(C(F)(F)F)ccc2S(=O)(=O)N(Cc2cccc(-n3ncc(C(=O)O)c3[C@@H]3C[C@H]3c3cn(C)nn3)c2)C1 (racemic) [Example 19, 1-(3-((4-methyl-1,1-dioxido-7-(trifluoromethyl)-4,5-dihydro-benzo[f][1,2]thiazepin-2(3H)-yl)methyl)phenyl)-5-((trans)-2-(1-methyl-1H-1,2,3-triazol-4-yl)cyclopropyl)-1H-pyrazole-4-carboxylic acid]	5.00 to 6.00
Cn1cc([C@@H]2C[C@H]2c2c(C(=O)O)cnn2-c2cccc(Cn3ccnc3CC3CCCCCC3)c2)nn1 (racemic) [Example 23]	7.00 to 8.00
Cn1cc([C@@H]2C[C@H]2c2c(C(=O)O)cnn2-c2cccc(Cn3ccnc3CN3CCCCC3)c2)nn1 (racemic) [Example 24]	6.00 to 7.00
CCCCCCN(Cc1cccc(-n2ncc(C(=O)O)c2[C@@H]2C[C@H]2c2cn(C)nn2)c1)S(=O)(=O)c1cccc(-c2ccccc2)c1 (racemic) [Example 34, 1-(3-((N-hexyl-[1,1′-biphenyl]-3-ylsulfonamido)methyl)phenyl)-5-((trans)-2-(1-methyl-1H-1,2,3-triazol-4-yl)cyclopropyl)-1H-pyrazole-4-carboxylic acid]	7.00 to 8.00
CN(Cc1cccc(-n2ncc(C(=O)O)c2[C@@H]2C[C@H]2c2cn(C)nn2)c1)S(=O)(=O)c1cccc(Oc2ccccc2)c1 (racemic) [Example 35, 5-((trans)-2-(1-methyl-1H-1,2,3-triazol-4-yl)cyclo-propyl)-1-(3-((N-methyl-3-phenoxy-phenyl-sulfonamido)-methyl)phenyl)-1H-pyrazole-4-carboxylic acid]	6.00 to 7.00
CCCCCCN(Cc1cccc(-n2ncc(C(=O)O)c2[C@@H]2C[C@H]2c2cn(C)nn2)c1)S(=O)(=O)c1ccccc1C (racemic) [Example 37, 1-(3-((N-hexyl-2-methylphenylsulfonamido)methyl)phenyl)-5-((trans)-2-(1-methyl-1H-1,2,3-triazol-4-yl)cyclo-propyl)-1H-pyrazole-4-carboxylic acid]	6.00 to 7.00
COc1ccc(Cl)cc1S(=O)(=O)N(C)Cc1cccc(-n2ncc(C(=O)O)c2[C@@H]2C[C@H]2c2cn(C)nn2)c1 (racemic) [Example 40, 1-(3-((5-chloro-2-methoxy-N-methylphenyl-sulfonamido)-methyl)phenyl)-5-((trans)-2-(1-methyl-1H-1,2,3-triazol-4-yl)cyclo-propyl)-1H-pyrazole-4-carboxylic acid]	5.00 to 6.00
CN(Cc1cccc(-n2ncc(C(=O)O)c2[C@@H]2C[C@H]2c2cn(C)nn2)c1)S(=O)(=O)c1c(Cl)cccc1C(F)(F)F (racemic) [Example 41, 1-(3-((2-chloro-N-methyl-6-(trifluoro-methyl)phenyl-sulfonamido)-methyl)phenyl)-5-((trans)-2-(1-methyl-1H-1,2,3-triazol-4-yl)cyclo-propyl)-1H-pyrazole-4-carboxylic acid]	5.00 to 6.00
Cc1ccccc1S(=O)(=O)N(C)Cc1cccc(-n2ncc(C(=O)O)c2[C@@H]2C[C@H]2c2cn(C)nn2)c1 (racemic) [Example 42, 1-(3-((N,2-dimethylphenylsulfonamido)methyl)phenyl)-5-((trans)-2-(1-methyl-1H-1,2,3-triazol-4-yl)cyclopropyl)-1H-pyrazole-4-carboxylic acid]	5.00 to 6.00
COc1ccc(Br)cc1S(=O)(=O)N(C)Cc1cccc(-n2ncc(C(=O)O)c2[C@@H]2C[C@H]2c2cn(C)nn2)c1 (racemic) [Example 43, 1-(3-((5-bromo-2-methoxy-N-methylphenylsulfonamido)methyl)phenyl)-5-((trans)-2-(1-methyl-1H-1,2,3-triazol-4-yl)cyclopropyl)-1H-pyrazole-4-carboxylic acid]	5.00 to 6.00
COc1cc([N+](=O)[O-])ccc1S(=O)(=O)N(C)Cc1cccc(-n2ncc(C(=O)O)c2[C@@H]2C[C@H]2c2cn(C)nn2)c1 (racemic) [Example 44, 1-(3-((2-methoxy-N-methyl-4-nitrophenylsulfonamido)methyl)phenyl)-5-((trans)-2-(1-methyl-1H-1,2,3-triazol-4-yl)cyclopropyl)-1H-pyrazole-4-carboxylic acid]	5.00 to 6.00
CCOc1ccccc1S(=O)(=O)N(C)Cc1cccc(-n2ncc(C(=O)O)c2[C@@H]2C[C@H]2c2cn(C)nn2)c1 (racemic) [Example 45, 1-(3-((2-ethoxy-N-methylphenylsulfonamido)methyl)phenyl)-5-((trans)-2-(1-methyl-1H-1,2,3-triazol-4-yl)cyclopropyl)-1H-pyrazole-4-carboxylic acid]	5.00 to 6.00
CN(Cc1cccc(-n2ncc(C(=O)O)c2[C@@H]2C[C@H]2c2cn(C)nn2)c1)S(=O)(=O)c1ccccc1OC(F)(F)F (racemic) [Example 46, 5-((trans)-2-(1-methyl-1H-1,2,3-triazol-4-yl)cyclopropyl)-1-(3-((N-methyl-2-(trifluoromethoxy)phenylsulfonamido)methyl)phenyl)-1H-pyrazole-4-carboxylic acid]	5.00 to 6.00
COc1ccccc1S(=O)(=O)N(C)Cc1cccc(-n2ncc(C(=O)O)c2[C@@H]2C[C@H]2c2cn(C)nn2)c1 (racemic) [Example 47, 1-(3-((2-methoxy-N-methylphenylsulfonamido)methyl)phenyl)-5-((trans)-2-(1-methyl-1H-1,2,3-triazol-4-yl)cyclopropyl)-1H-pyrazole-4-carboxylic acid]	5.00 to 6.00
